Converted amounts (≈) assume the structure as drawn.
What was measured:
MCF7 = test: Cytotoxicity against human MCF7 cells; type: functional; details: read-out: ED50 (the source's name)
A549 = test: Cytotoxicity against human A549 cells; type: functional; details: read-out: ED50 (the source's name)
Fusarium oxysporum = test: Antifungal activity against Fusarium oxysporum; type: functional
[1] = tested on: Trichophyton mentagrophytes; test: Antifungal activity against Trichophyton mentagrophytes ATCC 9129 by agar dilution method; type: functional
HT-29 = test: Cytotoxicity against human HT29 cells; type: functional; details: read-out: ED50 (the source's name)
[2] = Toxicity in brine shrimp larvae; type: organism-based; details: artemia, in vivo
[3] = tested on: Amaranthus hypochondriacus; test: Inhibition of phytogrowth in Amaranthus hypochondriacus seedlings measured after 24 hrs incubation under dark condition; type: functional, organism-based
Echinochloa crus-galli = test: Inhibition of phytogrowth in Echinochloa crus-galli seedlings measured after 48 hrs incubation under dark condition; type: functional, organism-based
Aspergillus niger = test: Antifungal activity against Aspergillus niger ATCC 16888 by agar dilution method; type: functional

Row | Compound | EC50 (MCF7) | EC50 (A549) | MIC [1] | EC50 (HT-29) | IC50 [3] | IC50 (Echinochloa crus-galli) | also measured
1 | C=CCc1cc(OC)c(OC)c(OC)c1OC | 46 µg/mL (≈ 193 µM) | 29 µg/mL (≈ 122 µM) | 500 µg/mL (≈ 2100 µM) | 71 µg/mL (≈ 298 µM) | 43 µg/mL (≈ 180 µM) | 810 µg/mL (≈ 3400 µM) | MIC (Fusarium oxysporum): 250 µg/mL (≈ 1050 µM); LC50 [2]: 144 µg/mL (≈ 604 µM)
2 | CCCCC[C@H]1CCCCCCCCCC(=O)O[C@H]2[C@H](O)[C@@H](CO)O[C@@H](O[C@H]3[C@H](O1)O[C@H](C)[C@H](O)[C@@H]3O)[C@@H]2O[C@@H]1O[C@@H](C)[C@H](OC(=O)[C@@H](C)CC)[C@@H](O[C@@H]2O[C@@H](C)[C@H](O)[C@@H](O)[C@H]2O)[C@H]1OC(=O)[C@@H](C)CC [TRICOLORIN A] |  |  |  |  |  | 12 µg/mL (≈ 11.7 µM) | 
3 | COC1=CC(=O)C[C@@H](C)[C@]12Oc1c(Cl)c(OC)cc(OC)c1C2=O [GRISEOFULVIN] |  |  | 2.6 µg/mL (≈ 7.37 µM) |  |  |  | 
4 | COc1cc(C=O)c(OC)c(OC)c1OC |  |  |  |  | 822 µg/mL (≈ 3630 µM) | > 1000 µg/mL | 
5 | COc1cccc2c1C(=O)c1c(O)c3c(c(O)c1C2=O)C[C@@](O)(C(=O)CO)C[C@@H]3O[C@H]1C[C@H](N)[C@H](O)[C@H](C)O1 [DOXORUBICIN] | 0.3 µg/mL (≈ 0.552 µM) | 0.03 µg/mL (≈ 0.0552 µM) |  | 0.007 µg/mL (≈ 0.0129 µM) |  |  | 
6 | C[C@@H]1[C@H](O)[C@@H](C)/C=C/C=C/C=C/C=C/C=C/C=C/C=C/[C@H](O[C@@H]2O[C@H](C)[C@@H](O)[C@H](N)[C@@H]2O)C[C@@H]2O[C@](O)(C[C@@H](O)C[C@@H](O)[C@H](O)CC[C@@H](O)C[C@@H](O)CC(=O)O[C@H]1C)C[C@H](O)[C@H]2C(=O)O [AMPHOTERICIN B] |  |  |  |  |  |  | MIC (Aspergillus niger): 3 µg/mL (≈ 3.25 µM)
